The structures appear in SMILES notation.

For one assay, the target named is T1, mGluR2 receptor (metabotropic glutamate receptor 2) (Homo sapiens, UniProt Q14416).
T1 construct: expressed in transfected cells
T1 sequence (Q14416 19-872, species assumed): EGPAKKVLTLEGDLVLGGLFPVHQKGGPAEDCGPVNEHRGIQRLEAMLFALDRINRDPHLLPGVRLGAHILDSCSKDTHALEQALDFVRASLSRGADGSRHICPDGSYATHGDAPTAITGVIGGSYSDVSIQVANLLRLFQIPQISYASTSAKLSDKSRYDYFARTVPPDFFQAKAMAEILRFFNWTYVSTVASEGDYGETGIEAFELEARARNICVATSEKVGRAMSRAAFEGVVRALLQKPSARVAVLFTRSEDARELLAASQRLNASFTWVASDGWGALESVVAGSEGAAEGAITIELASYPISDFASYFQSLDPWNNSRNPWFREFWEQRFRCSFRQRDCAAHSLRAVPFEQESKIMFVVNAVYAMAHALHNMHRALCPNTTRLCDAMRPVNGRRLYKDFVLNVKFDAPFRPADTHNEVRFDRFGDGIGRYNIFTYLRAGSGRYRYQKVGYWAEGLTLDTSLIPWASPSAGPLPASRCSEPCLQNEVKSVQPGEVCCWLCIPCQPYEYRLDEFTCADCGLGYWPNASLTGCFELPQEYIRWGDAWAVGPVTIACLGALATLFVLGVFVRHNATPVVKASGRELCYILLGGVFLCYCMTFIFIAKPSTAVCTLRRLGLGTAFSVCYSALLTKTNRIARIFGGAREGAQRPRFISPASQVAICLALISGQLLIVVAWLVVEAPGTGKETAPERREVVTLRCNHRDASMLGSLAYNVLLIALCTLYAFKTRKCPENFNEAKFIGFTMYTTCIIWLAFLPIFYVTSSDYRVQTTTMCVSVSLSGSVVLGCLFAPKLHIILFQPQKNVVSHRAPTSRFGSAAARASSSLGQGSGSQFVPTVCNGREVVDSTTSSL
Briefly: mGluR2 Potentiator Screen, FLIPR, EC10-EC20 glutamate challenge. It is filed as cell-based. The note with it: mGluR2 potentiator screen, Table 7; read-out: EC50. The method in brief: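 HEK cells stably co-expressing mGluR2 and Gα15, kept glutamine-free overnight, were loaded with Fluo-4 plus probenecid and GPT/pyruvate. Compounds (top 10 μM) were added ≥30 min before an EC10–EC20 glutamate challenge. Peak FLIPR fluorescence ratios were curve-fitted, excluding points above maximal effect, with maxima from on-plate standards.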
On to `Cn1c(CN2CCC(c3cc(Cl)ccc3OCC3CCOC3)CC2)nc2ccccc21` (stereo not shown) [compound 203], for which the EC50 came to 712 nM. On the same count and under the same terms, then `FCn1c(CN2CCC(c3cc(Cl)ccc3OCC3CCOC3)CC2)nc2ccccc21` (stereo not shown) [compound 204], with 3610 nM. Same read-out and setting: then `COCCn1c(CN2CCC(c3cc(Cl)ccc3OCC3CCOC3)CC2)nc2ccccc21` (stereo not shown) [compound 205], with 3350 nM; and `Clc1ccc(OCC2CCCO2)c(C2CCN(Cc3nc4ccccc4n3C3CC3)CC2)c1` (stereo not shown) [compound 206], with 2600 nM. On the same count and under the same terms, then `Cn1c(CN2CCC(c3cc(Cl)ccc3OCC3CCCO3)CC2)nc2ccccc21` (stereo not shown) [compound 207], with 666 nM. Turning to `FCn1c(CN2CCC(c3cc(Cl)ccc3OCC3CCCO3)CC2)nc2ccccc21` (stereo not shown) [compound 208], the EC50 was 4130 nM. Still for that read-out and setting: then `COCCn1c(CN2CCC(c3cc(Cl)ccc3OCC3CCCO3)CC2)nc2ccccc21` (stereo not shown) [compound 209], with 1700 nM; and `FCCn1c(CN2CCC(c3cc(Cl)ccc3OCC3CCCO3)CC2)nc2ccccc21` (stereo not shown) [compound 210], with 1040 nM; and `CC1(COc2ccc(Cl)cc2C2CCN(Cc3nc4ccccc4n3CF)CC2)COC1` [compound 211], with 8220 nM.

As for `CC1(COc2ccc(Cl)cc2C2CCN(Cc3nc4ccccc4n3CCF)CC2)COC1` [compound 212], the concentration giving a half-maximal response (EC50) was determined as 10500 nM. Still for that read-out and setting: then `Clc1ccc(OCC2CCCCO2)c(C2CCN(Cc3nc4ccccc4n3C3CC3)CC2)c1` (stereo not shown) [compound 214], with 2010 nM. The same measure, in the same setting: then `FCn1c(CN2CCC(c3cc(Cl)ccc3OCC3CCCCO3)CC2)nc2ccccc21` (stereo not shown) [compound 215], with 1570 nM; and `Cn1c(CN2CCC(c3cc(Cl)ccc3OCC3CCCCO3)CC2)nc2ccccc21` (stereo not shown) [compound 216], with 534 nM.

For `FCCn1c(CN2CCC(c3cc(Cl)ccc3OCC3CCCCO3)CC2)nc2ccccc21` (stereo not shown) [compound 217], the EC50 came out at 1180 nM. On to `COCCn1c(CN2CCC(c3cc(Cl)ccc3OCC3CCCCO3)CC2)nc2ccccc21` (stereo not shown) [compound 218], for which the EC50 is 1550 nM.

Take `CCCOc1ccc(Cl)cc1C1CCN(Cc2nc3ccccc3n2C)CC1` [compound 220]: the EC50 came out at 216 nM.

Regarding `CCCOc1ccc(Cl)cc1C1CCN(Cc2nc3ccccc3n2CF)CC1` [compound 221], the EC50 was determined as 413 nM. Turning to `CCCOc1ccc(Cl)cc1C1CCN(Cc2nc3ccccc3n2CCF)CC1` [compound 222], the EC50 amounted to 248 nM. With `CCCOc1ccc(Cl)cc1C1CCN(Cc2nc3ccccc3n2CCOC)CC1` [compound 223], the EC50 came to 233 nM.

Regarding `CCOc1ccc(Cl)cc1C1CCN(Cc2nc3ccccc3n2C)CC1` [compound 224], the EC50 was found to be 4260 nM.

The assay is the same for the next values; noted with them: read-out: EC50.
Take `CCOc1ccc(Cl)cc1C1CCN(Cc2nc3ccccc3n2C2CC2)CC1` [compound 225]: the EC50 was 999 nM. Same read-out and setting: then `CCOc1ccc(Cl)cc1C1CCN(Cc2nc3ccccc3n2CF)CC1` [compound 226], with 637 nM; and `CCOc1ccc(Cl)cc1C1CCN(Cc2nc3ccccc3n2CCF)CC1` [compound 227], with 210 nM; and `CCOc1ccc(Cl)cc1C1CCN(Cc2nc3ccccc3n2CCOC)CC1` [compound 228], with 185 nM. Regarding `COc1ccc(Cl)cc1C1CCN(Cc2nc3ccccc3n2C2CC2)CC1` [compound 229], the EC50 stood at 357 nM.

Turning to `COCCn1c(CN2CCC(c3cc(Cl)ccc3OC)CC2)nc2ccccc21` [compound 230], the EC50 was determined as 209 nM. The same measure, in the same setting: then `COc1ccc(Cl)cc1C1CCN(Cc2nc3ccccc3n2C)CC1` [compound 231], with 115 nM.

In the case of `COc1ccc(Cl)cc1C1CCN(Cc2nc3ccccc3n2CF)CC1` [compound 232], the EC50 worked out at 396 nM.

Consider `COc1ccc(Cl)cc1C1CCN(Cc2nc3ccccc3n2CCF)CC1` [compound 233], for which the EC50 was 264 nM. Same read-out and setting: then `COc1ccc(Cl)cc1C1CCN(Cc2nc3c(Br)cccc3n2C)CC1` [compound 234], with 1310 nM. `C#CCOc1ccc(Cl)cc1C1CCN(Cc2nc3ccccc3n2C2CC2)CC1` [compound 235]: the EC50 was 258 nM. Still for that read-out and setting: then `C#CCOc1ccc(Cl)cc1C1CCN(Cc2nc3ccccc3n2CCF)CC1` [compound 236], with 74.1 nM. In the case of `C#CCOc1ccc(Cl)cc1C1CCN(Cc2nc3ccccc3n2CF)CC1` [compound 237], the EC50 was 302 nM.

In the case of `C#CCOc1ccc(Cl)cc1C1CCN(Cc2nc3ccccc3n2C)CC1` [compound 238], the EC50 was determined as 78.1 nM. Same read-out and setting: then `C#CCOc1ccc(Cl)cc1C1CCN(Cc2nc3ccccc3n2CCOC)CC1` [compound 239], with 79 nM.

Consider `COc1ccccc1C1CCN(Cc2nc3ccccc3n2CCF)CC1` [compound 240], for which the EC50 came out at 146 nM. Turning to `FCCn1c(CN2CCC(c3ccccc3F)CC2)nc2ccccc21` [compound 241], the EC50 turned out to be 217 nM. As for `FCCn1c(CN2CCC(c3ccc(C(F)(F)F)cc3)CC2)nc2ccccc21` [compound 242], the EC50 is 301 nM. As for `FCCn1c(CN2CCC(c3ccccc3C(F)(F)F)CC2)nc2ccccc21` [compound 243], the EC50 was found to be 1260 nM. `COc1ccccc1C1CCN(Cc2nc3ccccc3n2C2CC2)CC1` [compound 244]: the EC50 is 484 nM. The same measure, in the same setting: then `FC(F)(F)c1ccccc1C1CCN(Cc2nc3ccccc3n2C2CC2)CC1` [compound 245], with 3350 nM; and `COCCn1c(CN2CCC(c3ccc(C(F)(F)F)cc3)CC2)nc2ccccc21` [compound 246], with 418 nM; and `FC(F)(F)c1ccc(C2CCN(Cc3nc4ccccc4n3C3CC3)CC2)cc1` [compound 247], with 821 nM. Turning to `COCCn1c(CN2CCC(c3ccccc3OC)CC2)nc2ccccc21` [compound 248], the EC50 was 320 nM.

Regarding `COCCn1c(CN2CCC(c3ccccc3F)CC2)nc2ccccc21` [compound 249], the EC50 is 251 nM. Regarding `COCCn1c(CN2CCC(c3ccccc3C(F)(F)F)CC2)nc2ccccc21` [compound 250], the EC50 was found to be 545 nM. Still for that read-out and setting: then `Fc1ccccc1C1CCN(Cc2nc3ccccc3n2C2CC2)CC1` [compound 251], with 1340 nM. For `FCn1c(CN2CCC(c3ccccc3F)CC2)nc2ccccc21` [compound 252], the EC50 was found to be 225 nM. Still for that read-out and setting: then `FCn1c(CN2CCC(c3ccccc3F)CC2)nc2ccccc21` [compound 253], with 116 nM; and `COc1ccccc1C1CCN(Cc2nc3ccccc3n2CF)CC1` [compound 254], with 62.4 nM.

As for `FCn1c(CN2CCC(c3ccc(C(F)(F)F)cc3)CC2)nc2ccccc21` [compound 255], the EC50 worked out at 164 nM. On the same count and under the same terms, then `FCn1c(CN2CCC(c3ccccc3C(F)(F)F)CC2)nc2ccccc21` [compound 256], with 422 nM; and `Cn1c(CN2CCC(c3ccccc3C(F)(F)F)CC2)nc2ccccc21` [compound 257], with 109 nM.

Consider `COc1ccccc1C1CCN(Cc2nc3cc(F)c(F)cc3n2C)CC1` [compound 258], for which the EC50 stood at 80.5 nM. Turning to `Cn1c(CN2CCC(c3ccccc3F)CC2)nc2cc(F)c(F)cc21` [compound 259], the EC50 turned out to be 468 nM. Same read-out and setting: then `Cn1c(CN2CCC(c3ccc(C(F)(F)F)cc3)CC2)nc2cc(F)c(F)cc21` [compound 260], with 422 nM. Turning to `Cn1c(CN2CCC(c3ccccc3C(F)(F)F)CC2)nc2cc(F)c(F)cc21` [compound 261], the EC50 was 2310 nM. For the compound `Cn1c(CN2CCC3(CC2)COc2ccccc23)nc2ccccc21` [compound 262], the EC50 was determined as 1170 nM. For `COc1ccccc1C1CCN(Cc2nc3cc(Br)ccc3n2C)CC1` [compound 263], the EC50 is 242 nM. As for `Cn1c(CN2CCC(c3ccccc3O)CC2)nc2ccccc21` [compound 265], the EC50 was found to be 1440 nM. Still for that read-out and setting: then `COc1ccccc1C1CCN(Cc2nc3c(C#N)cccc3n2C)CC1` [compound 266], with 3350 nM. For `Cc1cccc2c1nc(CN1CCC(c3ccccc3F)CC1)n2C` [compound 267], the EC50 came out at 249 nM. The same measure, in the same setting: then `Cn1c(CN2CCC(c3ccccc3F)CC2)nc2c(C#N)cccc21` [compound 268], with 1710 nM; and `Cn1c(CN2CCC(c3ccccc3F)CC2)nc2cc(Br)ccc21` [compound 269], with 445 nM.

In the case of `COc1ccccc1C1CCN(Cc2nc3c(Cl)cccc3n2C)CC1` [compound 270], the EC50 is 838 nM.

On to `COc1ccccc1C1CCN(Cc2nc3c(F)cccc3n2C)CC1` [compound 271], for which the EC50 came to 21.1 nM. For the compound `Cc1ccc2c(c1)nc(CN1CCC(c3ccccc3F)CC1)n2C` [compound 273], the EC50 was 79.7 nM. Still for that read-out and setting: then `Cn1c(CN2CCC(c3ccccc3F)CC2)nc2ccc(Br)cc21` [compound 274], with 318 nM; and `COc1ccc(-c2ccc3nc(CN4CCC(c5ccccc5F)CC4)n(C)c3c2)cn1` [compound 277], with 44.6 nM; and `Cn1c(CN2CCC(c3ccccc3F)CC2)nc2cc(-c3ccccc3)ccc21` [compound 280], with 176 nM. On the same count and under the same terms, then `COc1ccccc1C1CCN(Cc2nc3cc(N)ccc3n2C)CC1` [compound 281], with 1510 nM. On to `COc1ccccc1C1CCN(Cc2nc3cc(C)ccc3n2C)CC1` [compound 282], for which the EC50 is 41.6 nM.

As for `COc1ccccc1C1CCN(Cc2nc3cc(C#N)ccc3n2C)CC1` [compound 283], the EC50 was 90.8 nM. Regarding `COc1ccccc1C1CCN(Cc2nc3cc(F)ccc3n2C)CC1` [compound 284], the concentration giving a half-maximal response (EC50) came out at 39.4 nM. Still for that read-out and setting: then `COc1ccccc1C1CCN(Cc2nc3cc(Cl)ccc3n2C)CC1` [compound 285], with 49.3 nM. On the same count and under the same terms, then `COCn1c(CN2CCC(c3ccccc3F)CC2)nc2ccccc21` [compound 286], with 4620 nM. Same read-out and setting: then `COCn1c(CN2CCC(c3ccc(C(F)(F)F)cc3)CC2)nc2ccccc21` [compound 287], with 1900 nM; and `Cn1c(CN2CCC(c3ccccc3)CCC2=O)nc2ccccc21` (stereo not shown) [compound 289], with greater than 9880 nM; and `Cn1c(CN2CCC(c3ccc(C(F)(F)F)cc3)CCC2=O)nc2ccccc21` (stereo not shown) [compound 290], with 5720 nM.

The EC50 is the concentration that produces a half-maximal response.

(Values after US20080280933A1, “BENZIMIDAZOLYL COMPOUNDS” (priority 2006, published 2008).)
